In the CheMixHub viscosity set:

Test: xn = mol fraction of the nth substance listed

CCCBr + C1CCCCC1
308.15 K, 101 kPa
Details	viscosity [mPa·s]
x2 = 0.0957	0.4455
x2 = 0.1997	0.46
x2 = 0.2991	0.4715
x2 = 0.4983	0.516
x2 = 0.6052	0.5432
x2 = 0.7135	0.5889
x2 = 0.801	0.6197
x2 = 0.9011	0.6872

CCCCCCCCNCCCCCCCC + C1CCCCC1
303.15 K, 101 kPa
Details	viscosity [mPa·s]
x2 = 0.1052	3.382
x2 = 0.2021	3.137
x2 = 0.3028	2.95
x2 = 0.4044	2.591
x2 = 0.5039	2.306
x2 = 0.6016	1.976
x2 = 0.7009	1.653
x2 = 0.8006	1.364
x2 = 0.9216	1.055

CC(C)(C)O + C1COCCO1
298.15 K, 101 kPa
Details	viscosity [mPa·s]
x2 = 0.0878	2.941
x2 = 0.1776	2.179
x2 = 0.2717	1.773
x2 = 0.3647	1.496
x2 = 0.4695	1.304
x2 = 0.571	1.197
x2 = 0.6659	1.134
x2 = 0.7778	1.114
x2 = 0.791	1.111
x2 = 0.8424	1.11
x2 = 0.8786	1.118

CC1OC(C)OC(C)O1 (stereo unspecified) + CC1COC(=O)O1
viscosity [mPa·s], 101.3 kPa
Details	x1 = 0.091	x1 = 0.2019	x1 = 0.3007	x1 = 0.4055	x1 = 0.5011	x1 = 0.6022	x1 = 0.7006	x1 = 0.8028	x1 = 0.9028
293.15 K	2.641	2.499	2.364	2.215	2.07	1.91	1.75	1.577	1.402
298.15 K	–	–	–	–	–	–	–	1.412	1.26
303.15 K	2.161	2.027	1.907	1.779	1.661	1.531	1.402	1.268	1.134
308.15 K	1.969	1.843	1.732	1.614	1.505	1.385	1.267	1.144	1.024

COCCOCCOCCO + CC1COC(=O)O1
298.15 K, 101.33 kPa
Details	viscosity [mPa·s]
x1 = 0.0048	2.514
x1 = 0.015	2.563
x1 = 0.0231	2.601
x1 = 0.0338	2.645
x1 = 0.0436	2.701
x1 = 0.0626	2.807
x1 = 0.0855	2.896
x1 = 0.1268	3.064
x1 = 0.1715	3.253
x1 = 0.2173	3.462
x1 = 0.2578	3.648
x1 = 0.2932	3.814
x1 = 0.3343	4.013
x1 = 0.3636	4.167
x1 = 0.406	4.368
x1 = 0.445	4.559
x1 = 0.4717	4.699
x1 = 0.5024	4.844
x1 = 0.5261	4.965
x1 = 0.5629	5.143
x1 = 0.6084	5.347
x1 = 0.6548	5.581
x1 = 0.6969	5.687
x1 = 0.7326	5.831
x1 = 0.7667	5.978
x1 = 0.8023	6.05
x1 = 0.8213	6.09
x1 = 0.84	6.121
x1 = 0.8547	6.173
x1 = 0.88	6.194
x1 = 0.8997	6.201
x1 = 0.9173	6.208

COCCOCCOCCOC + CC1COC(=O)O1
298.15 K, 101.33 kPa
Details	viscosity [mPa·s]
x1 = 0.0049	2.492
x1 = 0.0113	2.496
x1 = 0.0249	2.504
x1 = 0.0352	2.516
x1 = 0.0525	2.523
x1 = 0.0833	2.536
x1 = 0.1358	2.56
x1 = 0.1928	2.568
x1 = 0.2559	2.561
x1 = 0.3083	2.543
x1 = 0.3356	2.539
x1 = 0.393	2.494
x1 = 0.466	2.444
x1 = 0.4902	2.428
x1 = 0.5272	2.402
x1 = 0.5728	2.361
x1 = 0.6242	2.308
x1 = 0.6786	2.254
x1 = 0.7038	2.227
x1 = 0.8165	2.127
x1 = 0.8598	2.088
x1 = 0.8959	2.047
x1 = 0.9347	2.021
x1 = 0.964	1.99

CC(C)(C)O + CC#N
viscosity [mPa·s]
Details	298.15 K	303.15 K	308.15 K	313.15 K
101 kPa, x1 = 0.0566	0.3785	0.3701	0.3589	–
101 kPa, x1 = 0.1198	0.4021	0.3935	0.3794	–
101 kPa, x1 = 0.1887	0.4346	0.4229	0.4056	–
101 kPa, x1 = 0.2685	0.4818	0.461	0.4406	–
101 kPa, x1 = 0.3568	0.5555	0.5226	0.4902	–
101 kPa, x1 = 0.4511	0.6735	0.6105	0.5659	–
101 kPa, x1 = 0.5606	0.9097	0.8128	0.7495	–
101 kPa, x1 = 0.6858	1.341	1.18	1.058	–
101 kPa, x1 = 0.831	2.213	1.884	1.63	–
101.3 kPa, x2 = 0.1675	1.925	1.606	1.359	1.158
101.3 kPa, x2 = 0.3117	1.187	1.035	0.909	0.805
101.3 kPa, x2 = 0.4368	0.863	0.756	0.68	0.615
101.3 kPa, x2 = 0.5471	0.66	0.604	0.553	0.509
101.3 kPa, x2 = 0.6446	0.552	0.511	0.474	0.442
101.3 kPa, x2 = 0.73	0.476	0.446	0.418	0.394
101.3 kPa, x2 = 0.8084	0.428	0.404	0.382	0.362
101.3 kPa, x2 = 0.8784	0.394	0.375	0.357	0.34
101.3 kPa, x2 = 0.9421	0.376	0.359	0.342	0.33

CCCCOC(=O)c1ccccc1 + CC#N
viscosity [mPa·s], 101.33 kPa
Details	x1 = 0.125	x1 = 0.244	x1 = 0.355	x1 = 0.463	x1 = 0.563	x1 = 0.654	x1 = 0.75	x1 = 0.83	x1 = 0.919
293.15 K	0.446	0.486	0.533	0.629	0.762	0.956	1.173	1.57	2.131
303.15 K	0.402	0.434	0.472	0.551	0.655	0.808	0.979	1.27	1.69
313.15 K	0.364	0.392	0.424	0.483	0.567	0.696	0.825	1.056	1.368
323.15 K	0.313	0.352	0.382	0.43	0.461	0.603	0.667	0.9	1.119

CC(C)(C)O + CC(=O)N(C)C
303.15 K, 101 kPa
Details	viscosity [mPa·s]
x2 = 0.1094	2.544
x2 = 0.2069	2.032
x2 = 0.3062	1.651
x2 = 0.4037	1.422
x2 = 0.5026	1.255
x2 = 0.6154	1.128
x2 = 0.7028	1.046
x2 = 0.8064	0.973
x2 = 0.8954	0.924

Nc1ccccc1 + CC(=O)O
viscosity [mPa·s]
Details	298.15 K	308.15 K	323.15 K
101.3 kPa, x1 = 0.0382	2.15	1.72	1.27
101.3 kPa, x1 = 0.0652	3.65	2.72	1.83
101.3 kPa, x1 = 0.0972	5.78	4.07	2.51
101.3 kPa, x1 = 0.132	8.79	5.69	3.26
101.3 kPa, x1 = 0.186	14.2	8.51	4.27
101.3 kPa, x1 = 0.229	18.5	10.5	5.14
101.3 kPa, x1 = 0.257	20.3	11.4	5.4
101.3 kPa, x1 = 0.286	20.8	11.6	5.52
101.3 kPa, x1 = 0.3	21.2	11.8	5.58
101.3 kPa, x1 = 0.333	20.5	11.6	5.43
101.3 kPa, x1 = 0.35	20.1	11.1	5.33
101.3 kPa, x1 = 0.377	19	10.7	5.16
101.3 kPa, x1 = 0.425	15.9	9.01	4.61
101.3 kPa, x1 = 0.497	13.5	7.7	4.03
101.3 kPa, x1 = 0.546	10.7	6.51	3.6
101.3 kPa, x1 = 0.675	6.68	4.48	–
101.3 kPa, x1 = 0.799	5.08	3.61	2.39
101.3 kPa, x1 = 0.86	4.57	3.3	2.25
101.33 kPa, x1 = 0.1058	7.29	–	2.96
101.33 kPa, x1 = 0.1746	12.3	–	–
101.33 kPa, x1 = 0.2824	21.9	–	5.65
101.33 kPa, x1 = 0.3086	21.4	–	5.58
101.33 kPa, x1 = 0.3408	20.3	–	5.23
101.33 kPa, x1 = 0.3878	18.1	–	–
101.33 kPa, x1 = 0.5159	11.8	–	3.82

Nc1ccccc1 + CC(C)(C)O
303 K, 101.33 kPa
Details	viscosity [mPa·s]
x1 = 0.1	2.851
x1 = 0.2	2.363
x1 = 0.3	2.307
x1 = 0.4	2.218
x1 = 0.5	2.257
x1 = 0.6	2.305
x1 = 0.7	2.407
x1 = 0.8	2.524
x1 = 0.9	2.766

CC(C)(C)O + CC(C)=O
viscosity [mPa·s], 101 kPa
Details	x1 = 0.0784	x1 = 0.1618	x1 = 0.2497	x1 = 0.3433	x1 = 0.4398	x1 = 0.5382	x1 = 0.6472	x1 = 0.7532	x1 = 0.8729
298.15 K	0.3321	0.3734	0.4146	0.4676	0.5414	0.6566	0.8929	1.304	2.131
303.15 K	0.324	0.3649	0.4058	0.4555	0.514	0.6108	0.8102	1.186	1.881
308.15 K	0.3158	0.3535	0.3941	0.4405	0.4928	0.583	0.7695	1.073	1.632

Nc1ccccc1 + CC(C)=O
298.15 K, 101 kPa
Details	viscosity [mPa·s]
x1 = 0.0833	0.3644
x1 = 0.1692	0.4238
x1 = 0.2591	0.5074
x1 = 0.3523	0.6194
x1 = 0.4492	0.7717
x1 = 0.5502	0.9752
x1 = 0.6556	1.252
x1 = 0.7653	1.679
x1 = 0.8805	2.259
